Source: patent US20150025012A1, “METHODS AND COMPOSITIONS FOR IDENTIFICATION, ASSESSMENT AND TREATMENT OF CANCERS ASSOCIATED WITH HEDGEHOG SIGNALING” (Infinity Pharmaceuticals, Inc., priority 2010, published 2015)
“Also recorded” adds a separate entry of the source.

What was measured:
[1] = tested on: human cell lines derived from patients with cancer; details: pancreatic cancer, medulloblastoma, lung cancer, multiple myeloma, leukemias, lymphomas; cited from earlier work
[2] = tested on: patient derived tumor xenograft models; assay: Tumor growth in patient derived tumor xenograft models; assay type: in vivo, Mice
Text: Mice received daily treatment of IPI-926, M-F, for 6-10 weeks (n=10-15 per group).

Gli1 mRNA = assay: Real-time RT-PCR of Gli1 mRNA in laser capture microdissected BCC tumor samples; assay type: in vivo, human; details: post-treatment versus pre-treatment, BCC patients
Procedure: As a comparison, real-time RT-PCR was performed using RNA extracted from Laser Capture Microdissected tumor samples from BCC patients. The ddCt method was used to calculate the real-time PCR results (Livak K. J. et al. (2001) Methods. 25(4):402-8). FIG. 27 is a bar graph depicting the quantitation of Gli1 mRNA pre- and post treatment with IPI-926. Although a decrease level of Gli1 mRNA is detected post-treatment, the level of reduction is not as pronounced as that detected by evaluating nuclear localization of Gli1.

hGli-1 mRNA expression = assay: Gli-1 mRNA expression after SHh stimulation in tumor cell lines (qRT-PCR); assay type: cell-based, human; details: SW872 liposarcoma cell lines; 500 nM IPI-926
Procedure: Several tumor cell lines were tested for Hh pathway responsiveness and for the presence or absence of cilia or vimentin immunofluorescence (IF). Hh pathway responsiveness was evaluated by detecting increases in hGli-1 mRNA expression in response to Sonic Hedgehog stimulation) in a control sample (C), sample treated with Sonic Hedgehog (SHh), and sample treated with SHh and 500 nM of the hedgehog inhibitor IPI-926 (926). Procedures for RNA extraction and RT-PCR detection were performed by standard methods. Briefly, total RNA was extracted from all tumors using a standard RNEASY® Mini Kit (Qiagen). Next, the RNA was converted to cDNA and 50 ng cDNA was used in each reaction/sample for qRT-PCR analysis of the expression of human Gli1. Samples were tested in duplicate. Cilia and Vimentin IF was performed using standard immunofluorescent methods. Cilia were detected on cells using immunofluorescence (IF) with antibodies specific for acetylated-tubulin obtained from Sigma Aldrich. Cells were co-stained with antibodies to the centriole-specific protein pericentrin.
Hh pathway modulation measured after growing cells in low serum and treating with SHh ligand in the presence or absence of IPI-926. Cell lines were cultured under the following conditions. […]

tumor stroma [3] = assay: Microvascular density (CD31 IHC) in tumor; assay type: in vivo; details: after treatment with IPI-926
[4] = tested on: subcutaneous L3.6pl tumor model; assay: Tumor perfusion by contrast enhanced high frequency ultrasound; assay type: in vivo, mice; details: IPI-926 orally 40 mg/kg for seven days, compared to vehicle
Procedure: The L3.6pl tumor cell line was injected subcutaneously and treatment with IPI-926 was initiated. IPI-926 or vehicle was administered orally at 40 mg/kg for seven consecutive days. On the eighth day, animals were subjected to ultrasound image capture and analysis using the Vevo 2100 high frequency ultrasound instrument (Visualsonics) in conjunction with contrast enhancement (microbubbles) during the imaging procedure. Contrast agent was administered by iv administration during the imaging procedure and quantified by measuring echogenic signal derived from the contrast agent over time.

tumor stroma [5] = assay: Uptake of imaging marker Gd-DTPA (DCE-MRI) and fluorescent drug and protein in tumors; assay type: in vivo; details: IPI-926 treated tumors
[6] = tested on: Basal Cell Carcinoma (BCC) lesion; assay: BCC lesion in a patient before and after treatment; assay type: in vivo, human; details: six months after treatment
Hedgehog pathway = details: after single administration; cited from earlier work
murine Gli1 = assay: Gli1 mRNA in sorted stromal cell fractions of tumors; assay type: in vivo; details: Lin+/Lin- and CD31+/CD31- fractions; IPI-926 40 mg/kg 24 hours prior to sacrifice
Text: Since tumor-associated stroma is a complex mixture of different cell types, further experiments have been carried out to determine the identity of the IPI-926-responsive cells. Tumors were obtained from animals treated or untreated with IPI-926 and the cells from within the tumors were subsequently fractionated in the following manner. First, the human cancer cells were removed from the mixture using magnetic beads that were coated with an antibody against the cell surface marker, Ep-CAM. Those cells that remained were the murine stromal cells associated with that tumor. Next, these stromal cells were subsequently separated based on their expression of cell surface markers known to be associated with specific cell lineages. In one sample set, cells were separated based on their expression of a panel of markers specific for cells of the hematopoietic lineage. These cells can be referred to as either Lin− or Lin+. […]
Cells used for sorting experiments were obtained by the following procedure. […] After this incubation, the cells in the flow through and the column were then analyzed for their expression of specific mRNAs by RT-PCR.
RNA for analysis was isolated from cell pellets or tumor tissue using the Ambion RNA 4-PCR isolation kit according to the manufacturer's guidance. […] Relative quantification of the expression data was obtained using the ΔΔCT method as described by Applied Biosystems.

[7] = daily treatment M-F for 6-10 weeks, multiple models

CC1=C2C[C@H]3[C@@H](CC[C@@H]4C[C@H](NS(C)(=O)=O)CC[C@@]43C)[C@@H]2CC[C@@]2(C1)O[C@@H]1C[C@H](C)CN[C@H]1[C@H]2C [IPI-926]
in vitro growth of human cell lines [1]: inhibit
changes in morphology ([2]; FIGS. 22A-22D micrographs): loss of tumor cells and calcification of the chondroid matrix
mean tumor growth inhibition [2, 7]: 43%
range of tumor growth inhibition [2, 7]: 33-52%
level of Gli1 mRNA (Gli1 mRNA): decrease
SHh-upregulated Gli-1 mRNA expression (hGli-1 mRNA expression): blocked
microvascular density (MVD, CD31 IHC) (tumor stroma [3]): increased
time to reach peak contrast [4]: decrease; also recorded: change
uptake of imaging marker Gd-DTPA and fluorescent drug and protein (doxorubicin, lectin) (tumor stroma [5]): increased uptake
size and morphology of BCC lesion [6]: dramatic reduction
Hedgehog pathway inhibition in stromal cells (Hedgehog pathway): rapid and sustained Hedgehog pathway inhibition
murine Gli1 inhibition in stromal cell fractions (murine Gli1): greatest degree of murine Gli1 inhibition was present in both the Lin-population and CD31-population
